{"source": "patent US12729382B2", "about": "“Tea plant CsVAAT3 gene and use thereof” (Anhui Agricultural University, priority 2022, dated 2026)", "tested_on": "wild-type BY4743 and yeast vacuolar amino acid mutants YPQ2, AVT2, AVT6", "assay": "Yeast dotting growth phenotype on high-concentration theanine medium", "assay_type": "cell-based", "settings": "theanine 50 mM", "protocol": "Yeast mutants YPQ2, AVT2, and AVT6 are high-concentration theanine-sensitive strains, and their growth is inhibited in a high-concentration theanine environment, which was used to verify the stress resistance of the selected genes. The YPQ2 strain was streaked on YPDA Agar Medium and cultured upside down in a constant temperature incubator at 28° C. for 2-3 days. A well-grown single colony was picked in a 2 mL centrifuge tube, added with 1 mL of YPDA Liquid Medium, and incubated at 28° C. on a shaker at 180 r/min for one day. 200 μL of well-grown yeast suspension was transferred to 30 mL of YPDA Liquid Medium, and incubated on a shaker at 28° C. and 180 r/min for 12-24 h. […] 500 μL of PEG mixture and 5 μL of DTT (1 M, ready for use) were added and vortexed. […]\nA single colony was picked in 20 mL of SD-U […] medium and shaken to an OD600 value of about 1.0 at 28° C. and 180 r/min (for about 48 h); 4 mL of yeast suspension was pipetted and centrifuged at 5,000 rpm for 2 min, the supernatant was discarded (under aseptic operation), cells were resuspended with sterile water, and the OD600 value was detected; the yeast suspension was diluted with sterile water to an OD600 value of 0.6 (the difference between the OD600 values of each sample should not exceed 0.02); (under aseptic operation) the yeast suspension was diluted to 10^0, 10^−1, 10^−2, and 10^−3 in turn. […]"}
{"smiles": "CCNC(=O)CC[C@H](N)C(=O)O", "note": "[theanine]", "values": [{"measurement": "growth of yeast under theanine treatment", "setting": "CsVAAT3-transformed yeast mutants (pDR196-CsVAAT3)", "value": "normal growth state"}, {"measurement": "growth of yeast under theanine treatment", "setting": "wild-type BY4743 and mutants YPQ2, AVT2, AVT6 (empty vector pDR196), solid medium, 30° C., about three days", "value": "significantly inhibited"}]}
